Results taken from patent publication US20230049952A1, “METHODS AND COMPOUNDS FOR RESTORING MUTANT P53 FUNCTION” (PMV Pharmaceuticals, Inc., priority 2020, published 2023).
Read-outs that look alike come from different tables or passages of the source.

Columns and labels:
[1] = biological target: p53 Y220C in MT373 tumors (Homo sapiens, UniProt P04637, Y220C); assay: MT373 syngeneic sarcoma model: mutant, WT and total p53 ELISA in tumors; assay type: in vivo, mouse; conditions: for Mutant p53 Protein, Percent Reduction Relative to Vehicle Control / Total p53 Protein, Percent Reduction Relative to Vehicle Control / WT p53 Protein, Fold Change over Vehicle Control: MT373 tumors
Method: Tumor Lysate Preparation: Lysis buffer was added to tumor samples and homogenized using a TissueLyser LT. Homogenized samples were spun by centrifuge for 30 minutes at 20817×g, and the supernatant transferred to a 1.5-mL tube. Protein samples were quantified, aliquoted into 96-well plates, and stored at −80° C.
Tumor lysates were diluted in blocking buffer such that the required protein amount is added to the plate in a 100 μL volume (WT p53 7.5 μg; mutant p53 2.5 μg; Total p53 2.5 μg). […] Plates were washed, and the reaction was developed using TMB for approximately 5 minutes and quenched with 0.16 M sulfuric acid. […] A background measurement was subtracted from the treated samples' signals. The signals were normalized to the respective vehicle controls.

[2] = biological target: BSEP (Homo sapiens, UniProt O95342); assay: BSEP inhibition: TCA uptake into BSEP-expressing vesicles; assay type: in vitro ADME; conditions: 10 μM test article
BSEP, sequence (O95342 whole entry, species assumed): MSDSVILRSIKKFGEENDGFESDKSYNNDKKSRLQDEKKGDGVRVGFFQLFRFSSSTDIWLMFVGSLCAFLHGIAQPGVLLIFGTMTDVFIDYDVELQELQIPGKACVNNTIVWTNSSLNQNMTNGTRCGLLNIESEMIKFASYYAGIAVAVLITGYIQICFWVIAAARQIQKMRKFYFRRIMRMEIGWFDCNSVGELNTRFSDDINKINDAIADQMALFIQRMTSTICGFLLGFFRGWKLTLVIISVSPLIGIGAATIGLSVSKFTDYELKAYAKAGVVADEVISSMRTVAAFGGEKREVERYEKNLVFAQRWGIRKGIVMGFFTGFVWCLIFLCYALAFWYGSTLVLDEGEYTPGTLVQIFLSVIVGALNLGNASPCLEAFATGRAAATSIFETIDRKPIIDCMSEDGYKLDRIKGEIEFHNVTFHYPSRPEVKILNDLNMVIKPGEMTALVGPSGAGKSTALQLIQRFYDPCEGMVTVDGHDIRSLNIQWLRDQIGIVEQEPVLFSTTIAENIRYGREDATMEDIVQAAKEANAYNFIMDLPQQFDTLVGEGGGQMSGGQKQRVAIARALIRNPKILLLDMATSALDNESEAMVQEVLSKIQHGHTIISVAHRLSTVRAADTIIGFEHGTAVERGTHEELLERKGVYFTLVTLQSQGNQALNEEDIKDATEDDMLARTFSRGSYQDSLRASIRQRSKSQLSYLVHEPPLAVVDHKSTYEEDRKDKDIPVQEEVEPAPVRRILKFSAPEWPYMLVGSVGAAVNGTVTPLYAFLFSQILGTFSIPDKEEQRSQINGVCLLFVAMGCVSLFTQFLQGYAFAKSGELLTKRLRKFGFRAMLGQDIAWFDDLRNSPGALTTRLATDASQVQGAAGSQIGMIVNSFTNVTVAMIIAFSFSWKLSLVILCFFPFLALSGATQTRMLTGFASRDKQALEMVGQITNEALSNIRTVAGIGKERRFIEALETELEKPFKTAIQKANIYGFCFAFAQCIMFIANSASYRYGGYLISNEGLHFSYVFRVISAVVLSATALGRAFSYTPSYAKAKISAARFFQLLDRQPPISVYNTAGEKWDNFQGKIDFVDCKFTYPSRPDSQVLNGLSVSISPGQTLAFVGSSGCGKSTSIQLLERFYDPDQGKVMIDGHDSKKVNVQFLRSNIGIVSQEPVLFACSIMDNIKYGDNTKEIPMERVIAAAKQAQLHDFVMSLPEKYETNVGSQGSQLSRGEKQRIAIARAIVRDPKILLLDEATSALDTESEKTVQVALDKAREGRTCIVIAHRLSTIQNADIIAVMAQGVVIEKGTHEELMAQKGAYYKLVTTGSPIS
Method: An assay to measure BSEP-mediated TCA uptake into inside-out BSEP-expressing vesicles was used. […] The reaction was initiated by adding 5 mM ATP (adenosine 5′-triphosphate) as the energy source for BSEP. Negative controls were run in parallel, using 5 mM AMP (adenosine 5′-monophosphate) in place of ATP. The reactions were carried out in 96-well plates incubated in a humidified incubator (37° C. 5% CO2) for 30 minutes. After incubation, the vesicle-associated TCA and free TCA were separated by rapid filtration through a glass-fiber filter plate under vacuum.
All samples were assayed by liquid chromatography-tandem mass spectrometry (LC-MS/MS) using electrospray ionization. Liquid Chromatography was performed using a Thermo BDS Hypersil C18 30×2.1 mm, 3 μm, with guard column. […] The Aqueous Reservoir (A) was 90% water, 10% buffer. The Organic Reservoir (B) was 90% acetonitrile, 10% buffer. The Flow Rate was 700 μL/minute. The Total Run Time for the liquid chromatography was 2.5 minutes. The Autosampler was 20 μL injection volume. The Autosampler Wash was water/methanol/2-propanol: 1/1/1; with 0.2% formic acid. Mass Spectrometry was performed on the PE SCIEX API 4000 instrument. The interface was Turbo Ionspray. The mode was Multiple reaction monitoring. The method was performed over 2.5 minute duration.

[3] = system: MT373 tumors; assay type: in vivo; conditions: 75 and 150 mg/kg BID×1 PO
From the text: Randomization and Study Setup: Implanted animals were monitored for palpable tumors. Eighteen days post implant the animals with palpable tumors had their tumor sizes determined via digital caliper. Mice were selected and randomized into three treatment groups according to tumor size. Average tumor volume (mm^3) and body weight (g) are described in TABLE 17. Treatment began on the eighteenth day post-implant to facilitate twice daily dosing.
Measurements and Calculation of Tumor Volume: Tumor volume was calculated using the following equation: (longest diameter×shortest diameter^2)/2. Individual tumor volumes and body weight measurements were taken at the final timepoint. The calculation for percent tumor growth inhibition (TGI) is as follows: [1−((Tt−T0/Ct−C0))]×100, where Ct is the mean tumor volume of the vehicle control group at time t, C0 is the mean tumor volume of the vehicle control group at time 0, and T is the mean tumor volume of the treatment group. Tumor regression was determined with the equation [(T0−Tt)/T0]×100 using the same definitions.

[4] = for Plasma Conc. / Tumor Conc.: MT373 tumor-bearing mice
[5] = 1 μM TCA, BSEP vesicles, 30 minutes

CCn1c(C#CCNc2ccccc2)cc2cc(CNC3CCN(C)CC3)ccc21 [Compound 1, 1-Anilino-3-{1-ethyl-5-[(1-methyl-4-piperidylamino)methyl]-1H-indol-2-yl}-2-propyne]
Mutant p53 Protein, Percent Reduction Relative to Vehicle Control ([1]; 75 mg/kg BIDx1 PO, 8 h): 53.91% | Total p53 Protein, Percent Reduction Relative to Vehicle Control ([1]; 75 mg/kg BIDx1 PO, 8 h): 35.06% | WT p53 Protein, Fold Change over Vehicle Control ([1]; 75 mg/kg BIDx1 PO, 8 h): 1.25 fold | Mutant p53 Protein, Percent Reduction Relative to Vehicle Control ([1]; 75 mg/kg BIDx1 PO, 24 h): 79.50% | Total p53 Protein, Percent Reduction Relative to Vehicle Control ([1]; 75 mg/kg BIDx1 PO, 24 h): 72.38% | WT p53 Protein, Fold Change over Vehicle Control ([1]; 75 mg/kg BIDx1 PO, 24 h): 1.13 fold | Mutant p53 Protein, Percent Reduction Relative to Vehicle Control ([1]; 75 mg/kg BIDx1 PO, 48 h): 67.23% | Total p53 Protein, Percent Reduction Relative to Vehicle Control ([1]; 75 mg/kg BIDx1 PO, 48 h): 63.03% | WT p53 Protein, Fold Change over Vehicle Control ([1]; 75 mg/kg BIDx1 PO, 48 h): 1.02 fold | Mutant p53 Protein, Percent Reduction Relative to Vehicle Control ([1]; 75 mg/kg BIDx1 PO, 72 h): 16.87% | Total p53 Protein, Percent Reduction Relative to Vehicle Control ([1]; 75 mg/kg BIDx1 PO, 72 h): 19.65% | WT p53 Protein, Fold Change over Vehicle Control ([1]; 75 mg/kg BIDx1 PO, 72 h): 1.11 fold | Mutant p53 Protein, Percent Reduction Relative to Vehicle Control ([1]; 75 mg/kg BIDx1 PO, 98 h): 0.00% | Total p53 Protein, Percent Reduction Relative to Vehicle Control ([1]; 75 mg/kg BIDx1 PO, 98 h): 0.00% | WT p53 Protein, Fold Change over Vehicle Control ([1]; 75 mg/kg BIDx1 PO, 98 h): 1.13 fold | Mutant p53 Protein, Percent Reduction Relative to Vehicle Control ([1]; 75 mg/kg BIDx1 PO, […]): 45.58% | Total p53 Protein, Percent Reduction Relative to Vehicle Control ([1]; 75 mg/kg BIDx1 PO, […]): 44.67% | WT p53 Protein, Fold Change over Vehicle Control ([1]; 75 mg/kg BIDx1 PO, […]): 0.88 fold | increase in WT conformation p53 ([1]; 75 mg/kg BID×1 PO, 8 h): 1.25 fold | Mutant p53 Protein, Percent Reduction Relative to Vehicle Control ([1]; 150 mg/kg BIDx1 PO, 8 h): 82.30% | Total p53 Protein, Percent Reduction Relative to Vehicle Control ([1]; 150 mg/kg BIDx1 PO, 8 h): 56.64% | WT p53 Protein, Fold Change over Vehicle Control ([1]; 150 mg/kg BIDx1 PO, 8 h): 1.45 fold | Mutant p53 Protein, Percent Reduction Relative to Vehicle Control ([1]; 150 mg/kg BIDx1 PO, 24 h): 93.74% | Total p53 Protein, Percent Reduction Relative to Vehicle Control ([1]; 150 mg/kg BIDx1 PO, 24 h): 81.75% | WT p53 Protein, Fold Change over Vehicle Control ([1]; 150 mg/kg BIDx1 PO, 24 h): 1.08 fold | Mutant p53 Protein, Percent Reduction Relative to Vehicle Control ([1]; 150 mg/kg BIDx1 PO, 48 h): 81.64% | Total p53 Protein, Percent Reduction Relative to Vehicle Control ([1]; 150 mg/kg BIDx1 PO, 48 h): 81.46% | WT p53 Protein, Fold Change over Vehicle Control ([1]; 150 mg/kg BIDx1 PO, 48 h): 0.94 fold | Mutant p53 Protein, Percent Reduction Relative to Vehicle Control ([1]; 150 mg/kg BIDx1 PO, 72 h): 58.64% | Total p53 Protein, Percent Reduction Relative to Vehicle Control ([1]; 150 mg/kg BIDx1 PO, 72 h): 60.43% | WT p53 Protein, Fold Change over Vehicle Control ([1]; 150 mg/kg BIDx1 PO, 72 h): 0.86 fold | Mutant p53 Protein, Percent Reduction Relative to Vehicle Control ([1]; 150 mg/kg BIDx1 PO, 98 h): 0.00% | Total p53 Protein, Percent Reduction Relative to Vehicle Control ([1]; 150 mg/kg BIDx1 PO, 98 h): 0.60% | WT p53 Protein, Fold Change over Vehicle Control ([1]; 150 mg/kg BIDx1 PO, 98 h): 0.95 fold | Mutant p53 Protein, Percent Reduction Relative to Vehicle Control ([1]; 150 mg/kg BIDx1 PO, […]): 34.14% | Total p53 Protein, Percent Reduction Relative to Vehicle Control ([1]; 150 mg/kg BIDx1 PO, […]): 32.40% | WT p53 Protein, Fold Change over Vehicle Control ([1]; 150 mg/kg BIDx1 PO, […]): 0.86 fold | increase in WT conformation p53 ([1]; 150 mg/kg BID×1 PO, 8 h): 1.45 fold | BSEP Inhibition Potential Classification [2]: Negative (Percent inhibition <50%: Negative) | TCA Concentration, Cofactor AMP, AVG ([2]; 1 μM TCA, AMP negative control): 1.97 nM | TCA Concentration, Cofactor AMP, R1 ([2]; 1 μM TCA, AMP negative control): 1.50 nM | TCA Concentration, Cofactor ATP, AVG [2, 5]: 85.5 nM | TCA Concentration, Cofactor ATP, R1 [2, 5]: 87. nM | BSEP Inhibition Classification ([2]; TCA 1 μM): negative | Percent Inhibition ([2]; negative values reported as 0): 0% | tolerability [3]: well tolerated | Plasma Conc. ([4]; 75 mg/kg BIDx1 PO, 8 h): 8375 ng/mL | Tumor Conc. ([4]; 75 mg/kg BIDx1 PO, 8 h): 30853 ng/g | Plasma Conc. ([4]; 75 mg/kg BIDx1 PO, 24 h): 1843 ng/mL | Tumor Conc. ([4]; 75 mg/kg BIDx1 PO, 24 h): 12035 ng/g | Plasma Conc. ([4]; 75 mg/kg BIDx1 PO, 48 h): 40 ng/mL | Tumor Conc. ([4]; 75 mg/kg BIDx1 PO, 48 h): 318 ng/g | Plasma Conc. ([4]; 75 mg/kg BIDx1 PO, 72 h): 0 ng/mL | Tumor Conc. ([4]; 75 mg/kg BIDx1 PO, 72 h): 97 ng/g | Plasma Conc. ([4]; 75 mg/kg BIDx1 PO, 98 h): 0 ng/mL | Tumor Conc. ([4]; 75 mg/kg BIDx1 PO, 98 h): 0 ng/g | plasma concentration ([4]; 75 mg/kg BID×1 PO, 8 h (Cmax)): 8375 ng/mL | plasma concentration ([4]; 75 mg/kg BID×1 PO, 24 h): 1843 ng/mL | Plasma Conc. ([4]; 150 mg/kg BIDx1 PO, 8 h): 11435 ng/mL | Tumor Conc. ([4]; 150 mg/kg BIDx1 PO, 8 h): 57645 ng/g | Plasma Conc. ([4]; 150 mg/kg BIDx1 PO, 24 h): 5986 ng/mL | Tumor Conc. ([4]; 150 mg/kg BIDx1 PO, 24 h): 67778 ng/g | Plasma Conc. ([4]; 150 mg/kg BIDx1 PO, 48 h): 268 ng/mL | Tumor Conc. ([4]; 150 mg/kg BIDx1 PO, 48 h): 2436 ng/g | Plasma Conc. ([4]; 150 mg/kg BIDx1 PO, 72 h): 7 ng/mL | Tumor Conc. ([4]; 150 mg/kg BIDx1 PO, 72 h): 59 ng/g | Plasma Conc. ([4]; 150 mg/kg BIDx1 PO, 98 h): 3 ng/mL | Tumor Conc. ([4]; 150 mg/kg BIDx1 PO, 98 h): 23 ng/g | plasma concentration ([4]; 150 mg/kg BID×1 PO, 8 h (Cmax)): 11435 ng/mL | plasma concentration ([4]; 150 mg/kg BID×1 PO, 24 h): 5986 ng/mL
